From PMC12622802, “Potent kinase inhibitors from the Merck KGaA OGHL: Novel hits against Trypanosoma brucei with potential for repurposing” (PLOS Neglected Tropical Diseases, 2025)
Entries after “also recorded” stand apart in the source; their conditions may differ. Where two headings read alike, the source gives them in different places.

What was measured:
[1] = Cytotoxicity, resazurin reduction assay, Vero; format: cell-based; conditions: African green monkey
Experimental: (§1) For cytotoxicity testing, they were seeded (90 µL) in 96-well plates at a density of 1x10^4 cells/well, in duplicate, and allowed to adhere overnight. […] Cell viability was then assessed using the resazurin reduction assay, as described above. […] Data were analysed using Microsoft Excel and GraphPad Prism 8.0. Nonlinear regression with a sigmoidal dose-response fit model was applied to the data to determine IC50 and CC50 values. Results represent the mean ± standard deviation (SD) from two independent experiments performed in duplicate.

[2] = Cytotoxicity, resazurin reduction assay, Raw264.7; format: cell-based, murine; conditions: mouse
Experimental: as §1

[3] = molecular target: human CX3C motif chemokine receptor 1 (CX3CR1); parameters: method as in printed; conditions: known human target; ref not given; cited from earlier work
[4] = test system: bloodstream forms of T. b. brucei Lister 427; test: Resazurin reduction growth inhibition assay against bloodstream forms of T. b. brucei; format: cell-based, Trypanosoma brucei brucei; conditions: read-out: IC50 ± SD (µM) T. b. b.
Experimental: Bloodstream forms of T. b. brucei Lister 427, a virulent laboratory strain of Trypanosoma brucei were cultured in HMI-9 medium as previously described. […] The resulting signal measured between 570 nm and 590 nm, is directly proportional to the quantity of viable parasites. […] After incubation, a working solution of resazurin (0.15 mg/mL in DPBS) was added to the plates in a 1:10 (v/v) ratio, followed by incubation for 4 hours at 37 °C with 5% CO2. Fluorescence was measured using an Infinite M200 microplate reader (Tecan) at excitation and emission wavelengths of 530 nm and 590 nm, respectively. Compound achieving ≥ 50% inhibition of trypanosomes were selected for further dose-response studies.
Compounds that adhered to the cutoff criterion (≥ 50% inhibition) were serially diluted and tested for their half-maximal inhibitory concentrations (IC50). […] Dose-response curves were generated using GraphPad Prism software (version 8.0). […]
Data were analysed using Microsoft Excel and GraphPad Prism 8.0. Nonlinear regression with a sigmoidal dose-response fit model was applied to the data to determine IC50 and CC50 values.

[5] = test system: bloodstream forms of T. b. brucei; test: Rescue experiment (4 h exposure, washout, drug-free medium); format: cell-based, Trypanosoma brucei brucei; conditions: 72 hours monitoring, 4xIC50 and 8xIC50
Experimental: (§2) To evaluate the killing kinetics of selected compounds, bloodstream forms of T. b. brucei (2 x 10⁵ cells/mL) were incubated in normal culture conditions in the presence of compounds at 8IC50, 4IC50, IC50, and 0.25IC50 concentrations in 24-well plates. Upon incubation, cultures were centrifuged at 0, 4, 8, 12, 24, 30, 36, 48, 60, and 72 hours’ time intervals at 2,500 rpm followed by motile trypanosomes enumeration using a Lumascope LS520 inverted microscope. To determine the mode of inhibition (parasitostatic or parasiticidal), a rescue experiment was conducted. Trypanosomes were exposed to the test doses (8IC50, 4IC50, IC50, and 0.25IC50) of the compounds for 4 hours. They were then washed three times with phosphate buffer saline (DPBS 1X), centrifuged at 2,500 rpm for 7 minutes, and resuspended in complete drug-free medium. These parasites were cultured under the same conditions, and motile organisms were enumerated with the Neubauer chamber at regular intervals over 72 hours. Data were plotted using GraphPad Prism 8.0 to determine the inhibition kinetics and classify the inhibitors as cidal or static. Pentamidine isethionate served as the reference compound and experiments were performed in duplicate.

[6] = test system: bloodstream forms of T. b. brucei; test: Trypanosome killing kinetics (time-kill assay); format: cell-based, Trypanosoma brucei brucei; conditions: for activity profile in time-kill assay (trypanocidal or cytostatic): 8IC50, 4IC50, IC50, 0.25IC50, over 72 hours
Experimental: as §2

[7] = Cytotoxicity, resazurin reduction assay, HepG2; format: cell-based, human; conditions: human
Experimental: (§3) Vero E6 (African green monkey kidney), Raw264.7 (murine macrophages) and HepG2 (human hepatocyte carcinoma) cell lines, sourced from the American Type Culture Collection, were cultured in DMEM supplemented with 10% (v/v) heat-inactivated fetal bovine serum, 1% (v/v) non-essential amino acids, and 1% (v/v) penicillin-streptomycin. Cells were maintained at 37 °C in a 5% CO2 atmosphere. For cytotoxicity testing, they were seeded (90 µL) in 96-well plates at a density of 1x10^4 cells/well, in duplicate, and allowed to adhere overnight. Serial dilutions (50-0.08 µM) of the compounds were prepared, and 10 µL of each were incubated with the monolayer for 48 hours. Podophyllotoxin was tested as a positive control at 10 μM and 0.5% DMSO (100% cell viability) was used as negative control. Cell viability was then assessed using the resazurin reduction assay, as described above. The 50% cytotoxic concentration (CC50) was calculated using GraphPad Prism software (version 8.0), and selectivity indices (SIs) were determined by dividing the […].
(§4) Data were analysed using Microsoft Excel and GraphPad Prism 8.0. Nonlinear regression with a sigmoidal dose-response fit model was applied to the data to determine IC50 and CC50 values. Results represent the mean ± standard deviation (SD) from two independent experiments performed in duplicate.

[8] = test system: HepG2 (human hepatocyte carcinoma) cells; test: Cytotoxicity, resazurin reduction assay, HepG2; format: cell-based
Experimental: as §3, §4

[9] = molecular target: anaplastic lymphoma kinase (ALK); parameters: method as in ref 31 = [31]; 31 Garcia-Echeverria C , Kanazawa T , Kawahara E , Masuya K , Matsuura N , Miyake T . 2, 4-pyrimidinediamines useful in the treatment of neoplastic diseases, inflammatory and immune system disorders .; conditions: cited from earlier work
[10] = molecular target: focal adhesion kinase (FAK); parameters: method as in ref 31 = [31]; 31 Garcia-Echeverria C , Kanazawa T , Kawahara E , Masuya K , Matsuura N , Miyake T . 2, 4-pyrimidinediamines useful in the treatment of neoplastic diseases, inflammatory and immune system disorders .; conditions: cited from earlier work
[11] = test system: insulin-like growth factor 1 (IGF-1R); parameters: method as in ref 31 = [31]; 31 Garcia-Echeverria C , Kanazawa T , Kawahara E , Masuya K , Matsuura N , Miyake T . 2, 4-pyrimidinediamines useful in the treatment of neoplastic diseases, inflammatory and immune system disorders .; conditions: cited from earlier work
[12] = molecular target: leucine-rich repeat kinase 2 (LRRK2); parameters: method as in ref 31 = [31]; 31 Garcia-Echeverria C , Kanazawa T , Kawahara E , Masuya K , Matsuura N , Miyake T . 2, 4-pyrimidinediamines useful in the treatment of neoplastic diseases, inflammatory and immune system disorders .; conditions: cited from earlier work
[13] = Trypanosoma brucei, 72 h, confirmation screen, powdered form, 72 hours
[14] = Trypanosoma brucei, 72 h, primary screen, DMSO stock solution, bloodstream form T. b. brucei Lister 427, 72 hours
[15] = primary screen, DMSO stock solution, bloodstream form T. b. brucei Lister 427, 72 hours

| Compound | IC50 [4, 14] | IC50 [4, 15] | CC50 at 48 h [7] | CC50 [8] | further results |
| --- | --- | --- | --- | --- | --- |
| CN(C)C(=O)/C=C/C(=O)c1ccc(SCc2ccc(Cl)cc2Cl)cc1 [OGHL00006, (E)-4-(4-((2,4-dichlorobenzyl)thio)phenyl)-N,N-dimethyl-4-oxobut-2-enamide] | ≤ 1 µM | 0.56 ± 0.001 µM | 17.5 ± 0.94 µM |  | CC50 at 48 h [1]: 1.2 ± 0.07 µM; CC50 at 48 h [2]: 2.2 ± 0.05 µM; IC50 [3]: 526 nM; IC50 [4, 13]: 0.6 ± 0.1 µM; effect after short exposure and washout (reversible or irreversible) [5]: irreversible trypanocidal activity; also recorded: irreversible trypanocidal effects; activity profile in time-kill assay (trypanocidal or cytostatic) [6]: strong trypanocidal activity |
| Oc1ccc2[nH]cc(CCCCN3CC=C(c4ccccc4)CC3)c2c1 [OGHL00007] |  | 5.3 ± 0.7 µM |  | > 50 µM |  |
| CCC(C)[S+]([O-])c1ccc(-c2nc3ccncc3[nH]2)c(OC)c1 (stereo not drawn) [OGHL00019] |  | 2.49 ± 0.1 µM |  | 19.8 ± 2.72 µM |  |
| COc1ccc(C(=O)N2CCC(C)(C)c3cc(C4=NNC(=O)SC4C)ccc32)cc1OC (stereo not drawn) [OGHL00025] | 9.22 ± 0.0007 µM |  | 33.3 ± 2.83 µM |  |  |
| CCN=C(c1ccc(OC)c(OC)c1)N1CCCc2cc(C3=NNC(=O)SC3C)ccc21 (stereo not drawn) [OGHL00032] |  |  | 48.43 ± 0.25 µM |  | IC50 ([4]; Trypanosoma brucei, 72 h): 5.04 ± 0.16 µM |
| CN(CCCCc1ccc(F)cc1)CCC(=O)c1ccc2[nH]c(=O)oc2c1 [OGHL00087] |  | 8.62 ± 0.093 µM |  | 27.3 ± 4.5 µM |  |
| CCCc1nn(C)c2c(=O)[nH]c(-c3cc(C(=O)N=C(N)N)ccc3OCC)nc12 [OGHL00103] |  | 7.8 ± 0.07 µM |  | 41.5 ± 3.4 µM |  |
| CNC(=O)c1cc(Oc2ccc(NC(=O)Nc3cc(C(F)(F)F)ccc3-n3ccnc3)cc2)ccn1 [OGHL00130] | 3 µM | 3.05 ± 0.14 µM | 12.9 ± 0.5 µM |  |  |
| CNS(=O)(=O)c1ccccc1Nc1nc(Nc2cc(OC)c(OC)cc2C)ncc1Br [OGHL00133, 2-((5-bromo-2-((4,5-dimethoxy-2-methylphenyl)amino)pyrimidin-4-yl)amino)-N-methylbenzenesulfonamide] |  |  | > 50 µM |  | IC50 [9]: 30 nM; CC50 at 48 h [1]: 1.01 ± 0.09 µM; IC50 [10]: 2.8 nM; CC50 at 48 h [2]: 4.5 ± 0.1 µM; IC50 [11]: < 80 nM; IC50 [4, 13]: 0.007 ± 0.00073 µM; IC50 [12]: 0.13 nM; effect after short exposure and washout (reversible or irreversible) [5]: reversible inhibitory effect; activity profile in time-kill assay (trypanocidal or cytostatic) [6]: cytostatic activity |
| CNS(=O)(=O)c1ccccc1Nc1nc(Nc2ccc(N3CCOCC3)cc2OC)ncc1Br [OGHL00134] | 1.3 µM | 1.31 ± 0.22 µM | 22.1 ± 5.06 µM |  |  |
| COc1cccc(CNc2nnc(-c3c[nH]c4ncccc34)o2)c1 [OGHL00138] |  | 1.55 ± 0.2 µM |  | 23.1 ± 3.57 µM |  |
| CCOc1cc(CCNC(=O)C[C@H]2S[C@@H](c3ccc(C#Cc4ccccc4)cc3)N(c3cccc(C(N)=O)c3)C2=O)ccc1OC [OGHL00152] | 8.87 ± 0.7 µM |  |  |  |  |
| Cc1ccccc1-c1ccc(-c2nc(-c3ccc(CN(C)CCC(=O)O)c(F)c3)no2)cc1OCC1CC1 [OGHL00165] |  | 8.83 ± 0.09 µM |  | > 50 µM |  |
| CCOc1cc(CCNC(=O)C[C@H]2S[C@@H](c3ccc(C#Cc4ccccc4)cc3)N(c3cccc(C(N)=O)c3)C2=O)ccc1O [OGHL00183] | 9.64 ± 0.05 µM |  | 50 µM |  |  |
| COc1nc(/C=C/c2nc3n(n2)CCCC3c2ccccc2C(F)(F)F)ccc1-n1cnc(C)c1 (stereo not drawn) [OGHL00208] | 7.53 ± 1.27 µM |  | 2.36 ± 0.52 µM |  |  |
| COc1nc(/C=C/c2nc3n(n2)CCC[C@@H]3c2ccccc2C(F)(F)F)ccc1-n1cnc(C)c1 [OGHL00211] | 2.37 ± 0.22 µM |  | 5.94 ± 2.55 µM |  |  |
| COc1ccc(OC)c(CCNC(=O)c2cn3cc(-c4cc(OC)ccc4OC)nc3s2)c1 [OGHL00225] | 9.86 ± 0.0007 µM |  | > 50 µM |  |  |
| COc1cc(OC)c(CCNC(=O)c2cn3cc(-c4cc(OC)ccc4OC)nc3s2)c(OC)c1 [OGHL00227] | 2.8 ± 0.08 µM |  | > 50 µM |  | fold increase in selectivity ([8]; relative to the analogue of the same series named in the sentence): 3.5 fold |
| COc1cc(OC)c(CCNC(=O)c2ccc3nc(-c4cc(OC)ccc4OC)cn3c2)c(OC)c1 [OGHL00231] | 9 µM | 9.06 ± 0.13 µM | > 50 µM |  |  |
| COc1ccc(OCCCO)cc1-c1cn2cc(-c3nnc(NCCCCc4ccccc4)o3)ccc2n1 [OGHL00236] |  | 6.19 ± 0.4 µM |  | 9.07 ± 0.94 µM |  |
| COc1cc(OC)c(CCNC(=O)c2cn3cc(-c4cc(OCC#N)ccc4OC)nc3s2)c(OC)c1 [OGHL00238] | 2.67 ± 0.7 µM |  | 2.01 ± 0.46 µM |  |  |
| COc1ccc(OCC(N)=O)cc1-c1cn2cc(C(=O)NCCc3c(OC)cccc3OC)sc2n1 [OGHL00241] | 2.28 ± 0.04 µM |  | 9.259 ± 0.019 µM |  |  |
| COc1cc(C(=O)N(C)C)ccc1-c1cc2nccc(-c3ccc4ccncc4c3)c2o1 [OGHL00250] |  | 2.15 ± 0.2 µM |  | > 50 µM |  |
| N=C(N)c1ccc(OCCCCCOc2ccc(C(=N)N)cc2)cc1 [Pentamidine isethionate, reference compound] |  |  |  |  | activity profile in time-kill assay (trypanocidal or cytostatic) [6]: complete and sustained parasite clearance across all tested concentrations; time of exposure to parasite killing / growth arrest ([6]; time-kill assay): ≤ 24 h |
| COc1cc([C@@H]2c3cc4c(cc3[C@H](O)[C@H]3COC(=O)[C@H]23)OCO4)cc(OC)c1OC [Podophyllotoxin, reference compound] |  |  |  |  | CC50 at 48 h ([1]; confirmation screen, powdered form, 48 hours, read-out: CC50 ± SD (µM) Vero): 0.08 ± 0.005 µM; CC50 at 48 h ([2]; confirmation screen, powdered form, 48 hours, read-out: CC50 ± SD (µM) Raw): 0.016 ± 0.002 µM; CC50 at 48 h ([7]; primary screen, DMSO stock solution, 48 hours, read-out: CC50 ± SD (µM) HepG2): 0.031 ± 0.009 µM |
